Read-outs that look alike come from different tables or passages of the source. Values belong to the molecule of their own block, whether it stands above or below them.
What was measured:
MT2 = target: T1, MT2 (Homo sapiens, UniProt P49286); assay: cAMP assay (GloSensor), isoproterenol-stimulated cAMP in HEK cells; type: cell-based; parameters: expressed in transfected cells; host or cells: HEK-T (HEK-293 T) cells, co-transfected with GloSensor DNA; MT2 activity: dose or concentration left out as unconfirmed
T1 sequence (P49286 1-362): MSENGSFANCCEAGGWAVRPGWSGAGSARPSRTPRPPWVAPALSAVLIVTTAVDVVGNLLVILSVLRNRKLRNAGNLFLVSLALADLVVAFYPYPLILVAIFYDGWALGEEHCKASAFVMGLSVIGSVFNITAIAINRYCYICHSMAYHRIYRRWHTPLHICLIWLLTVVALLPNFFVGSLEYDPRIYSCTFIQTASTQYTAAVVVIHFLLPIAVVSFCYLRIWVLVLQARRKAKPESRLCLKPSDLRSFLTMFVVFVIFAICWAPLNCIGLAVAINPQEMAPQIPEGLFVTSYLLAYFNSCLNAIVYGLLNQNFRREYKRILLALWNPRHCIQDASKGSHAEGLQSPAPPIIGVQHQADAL
Protocol: MT1 and MT2 receptors were tested using Promega's spilt luciferase based GboSensor cAMP biosensor technology. HEK-T cells were plated in 15 cm cell culture dish (at a density of 18 million cells) containing DMEM composed of 10% dialyzed FBS, 2 mM L-glutamine, 100 units/ml penicillin G, 100 μg/ml streptomycin for 4-6 hour. Then, cells were co-transfected with 8 μg of construct which encodes either MT1 or MT2 (de-Tangonized constructs) and […] of Glosensor DNA. […] The next day, cell medium were discarded and loaded with 20 μl of assay buffer (1×HBSS, 20 mM HEPES, pH 7.4, 0.1% BSA). To measure agonist activity of MT1 or MT2 receptor, 10 μl of test compound solution at 3× final concentration was added for 15 minutes followed by addition of 10 μl of luciferin/isoproterenol mixture (at a final concentration of 4 mM and 200 nM respectively) for another 15 mins for luminescence quantification. Then, plates were counted using SpectraMax luminescence reader (Molecular Device). Data were analyzed using GraphPad Prism 6.0.

hMT1 = hMT1 (Homo sapiens, UniProt P48039); assay: as above; type: cell-based; parameters: expressed in transfected cells; host or cells: HEK-T (HEK-293 T) cells, co-transfected with GloSensor DNA
Protocol: HEK-293 T cells were maintained with complete Dulbecco's modified Eagle's medium (DMEM), which is composed of 10% fetal bovine serum (FBS), 2 mM L-glutamine, 100 units/ml penicillin G, 100 μg/ml streptomycin at 37° C. in the presence of 5% CO2
MT1 and MT2 receptors were tested using Promega's spilt luciferase based GboSensor cAMP biosensor technology. HEK-T cells were plated in 15 cm cell culture dish (at a density of 18 million cells) containing DMEM composed of 10% dialyzed FBS, 2 mM L-glutamine, 100 units/ml penicillin G, 100 μg/ml streptomycin for 4-6 hour. Then, cells were co-transfected with 8 μg of construct which encodes either MT1 or MT2 (de-Tangonized constructs) and […] of Glosensor DNA. Next day, transfected cells were seeded into poly-L-lysinecoated 384-well white clear bottom cell culture plates with complete DMEM with 1% dialized FBS at a density of 20,000 cells per well for another 24 h. The next day, cell medium were discarded and loaded with 20 μl of assay buffer (1×HBSS, 20 mM HEPES, pH 7.4, 0.1% BSA). To measure agonist activity of MT1 or MT2 receptor, 10 μl of test compound solution at 3× final concentration was added for 15 minutes followed by addition of 10 μl of luciferin/isoproterenol mixture (at a final concentration of 4 mM and 200 nM respectively) for another 15 mins for luminescence quantification. Then, plates were counted using SpectraMax luminescence reader (Molecular Device). Data were analyzed using GraphPad Prism 6.0.

[1] = panel of widely-used MTR ligands
[2] = panel of widely-used MTR ligands, in words
[3] = HEK293, Table 6, Inverse (inverse agonist), read-out: MT1 Emax
[4] = Table 6, Inverse (inverse agonist), read-out: MT1 pEC50 (converted)
[5] = HEK293, Table 2, agonist, normalized to melatonin response, read-out: MT2 % Emax (converted)
[6] = HEK293, Table 2, agonist, normalized to melatonin response, read-out: MT1 % Emax (converted)
[7] = HEK293, Table 2, cell marked Inverse (inverse agonist), read-out: MT2 % Emax (converted)
[8] = Table 2, cell marked Inverse (inverse agonist)
[9] = HEK293, Table 2, cell marked Inverse (inverse agonist), read-out: MT1 % Emax (converted)
[10] = HEK293, Table 1, agonist, normalized to melatonin response, read-out: MT1 % Emax (converted)
[11] = Table 1, agonist, normalized to melatonin response

Chain of hMT1 (P48039 whole entry): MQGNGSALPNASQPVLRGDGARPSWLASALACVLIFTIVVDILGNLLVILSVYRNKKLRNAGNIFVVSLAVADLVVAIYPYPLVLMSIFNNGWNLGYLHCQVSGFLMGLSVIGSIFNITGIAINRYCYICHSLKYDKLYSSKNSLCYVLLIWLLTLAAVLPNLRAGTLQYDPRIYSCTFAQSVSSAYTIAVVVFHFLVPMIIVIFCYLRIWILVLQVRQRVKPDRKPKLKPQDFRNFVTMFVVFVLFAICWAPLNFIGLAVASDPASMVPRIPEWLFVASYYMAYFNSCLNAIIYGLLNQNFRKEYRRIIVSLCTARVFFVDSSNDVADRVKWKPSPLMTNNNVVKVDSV

SMILES: CCC(=O)NC1Cc2ccccc2C(c2ccccc2)C1 (centres unmarked) [Compound 4P-PDOT, reference compound]
- MT2 selectivity (agonist) (MT2; [1]): 150 fold

SMILES: CC(=O)NCCc1c[nH]c2ccccc12 [N-acetyl tryptamine, reference compound]
- MT2 selectivity (agonist) (MT2; [1]): 39 fold

SMILES: COc1ccc(CNc2cccnc2)cc1 [ZINC5586789]
- Emax (MT2; [5]): 51%
- MT2 pEC50 (MT2; Table 2, agonist): 8.07 ± 0.15
- Emax (hMT1; [6]): 37%
- MT1 pEC50 (hMT1; Table 2, agonist): 6.81 ± 0.72

SMILES: Cc1nnc(-c2cccc(NCc3ccc(Cl)cc3)c2)[nH]1 [ZINC37781620]
- Emax (MT2; [7]): 120%
- MT2 pEC50 (MT2; [8]): 6.20 ± 0.10
- Emax (hMT1; [9]): 19%
- MT1 pEC50 (hMT1; [8]): 7.90 ± 0.90

SMILES: COc1ccc(CNc2cccnc2C)cc1C [ZINC91496083]
- Emax (MT2; [5]): 106%
- MT2 pEC50 (MT2; Table 2, agonist): 7.15 ± 0.17
- Emax (hMT1; [6]): 66%
- MT1 pEC50 (hMT1; Table 2, agonist): 4.65 ± 0.44

SMILES: COC(=O)c1sc(N(C)Cc2ccc(Cl)nc2)nc1Cl [ZINC92585174]
- Emax (MT2; HEK293, Table 1, agonist, normalized to melatonin response, read-out: MT2 % Emax (converted)): 74%
- Emax (hMT1; [10]): 98%
- MT1 pEC50 (hMT1; Table 1, agonist): 7.80 ± 0.17

SMILES: COc1ccc(CN(C(=O)c2ccccc2F)c2ccncc2)cc1 [ZINC151192780]
- selectivity for MT2 over MT1 (MT2; FIG. 7 analogs of '9032): 200 fold
- Emax (MT2; [5]): 95%
- MT2 pEC50 (MT2; Table 2, agonist): 7.13 ± 0.12
- Emax (hMT1; [6]): 54%
- MT1 pEC50 (hMT1; Table 2, agonist): 5.18 ± 0.22

SMILES: COc1ccc(CNc2cccc(-c3nnc[nH]3)c2)cc1 [ZINC157665999]
- Emax (MT2; HEK293, Table 1, cell marked Inverse (inverse agonist), read-out: MT2 % Emax (converted)): 90%
- MT2 pEC50 (MT2; Table 1, cell marked Inverse (inverse agonist)): 7.29 ± 0.16
- EC50 (MT2; inverse agonist, read-out: EC50 at MT2): 50 nM
- Emax (hMT1; [10]): 63%
- MT1 pEC50 (hMT1; Table 1, agonist): 4.89 ± 0.38
- EC50 (hMT1; agonist, read-out: EC50 at MT1): 10000 nM

SMILES: Clc1ccc(CNc2cccc(-c3nnc[nH]3)c2)c(Cl)c1 [ZINC157676497]
- Emax (MT2; [7]): 62%
- MT2 pEC50 (MT2; [8]): 6.01 ± 0.30
- Emax (hMT1; [9]): 60%
- MT1 pEC50 (hMT1; [8]): 7.32 ± 0.05

SMILES: COc1cccc2c1CCN(C(=O)c1ccc(F)nc1)C2 [ZINC182731037]
- MT2 activity (MT2): without detectable MT2 activity
- Emax (hMT1; [10]): 82%
- MT1 pEC50 (hMT1; Table 1, agonist): 5.30 ± 0.09
- EC50 (hMT1; agonist, read-out: EC50 at MT1): 2000 to 6000 nM

Now from value to molecule:

- Emax (MT2; HEK293, Table 5, read-out: MT2 Emax): 75 ± 5%
- EC50 (MT2; Table 5, MT2 receptor agonists, read-out: MT2 pEC50 (converted)): 1.82 nM
SMILES: COc1ccc(C2CC2)c(CNc2cccnc2)c1

- type selectivity (MT2; [2]): little type selectivity
SMILES: CCC(=O)NC1CCc2cccc(OC)c2C1 (centres unmarked) [Compound 8M-PDOT, reference compound]

- Emax (hMT1; [3]): 30%
- EC50 (hMT1; [4]): 75.9 nM
SMILES: c1cc(NCc2ccc(C3CCC3)nc2)cc(-c2cc[nH]n2)c1 [Compound Z3668902476]

- Emax (hMT1; [3]): 47%
- EC50 (hMT1; [4]): 245 nM
SMILES: Cc1nc(-c2cccc(NCc3ncc(Cl)cc3Br)c2)n[nH]1 [Compound Z3668902489]

- efficacy at the MT2 receptor (MT2; [2]): partial agonism
SMILES: CCCCC(=O)NCCc1c(Cc2ccccc2)[nH]c2ccccc12 [DH97, reference compound]

- efficacy at the MT2 receptor (MT2; [2]): partial agonism
SMILES: CC(=O)NCCc1c(Cc2ccccc2)[nH]c2ccccc12 [Luzindole, reference compound]

- MT2 activity (MT2): without detectable MT2 activity
- Emax (hMT1; [10]): 88%
- EC50 (hMT1; agonist, read-out: EC50 at MT1): 2000 to 6000 nM
SMILES: COc1ccc(CN(C(=O)C2CC2C)c2ccncc2)cc1 (centres unmarked) [ZINC151209032]

- MT2 % Emax (MT2; [11]): 83 ± 3%
- selectivity for the MT1 v. the MT2 receptor type (hMT1): 2 fold
- MT1 % Emax (hMT1; [11]): 99 ± 1%
- Emax(%) at MT1 (hMT1; agonist): 99±1%
- pEC50 at MT1 (hMT1; agonist): 9.00±0.15
SMILES: COC(=O)c1ccc(CSc2nnc(C3CC3)[nH]2)s1 [ZINC159050207]
